According to US11801235B2, “Methods and compositions for delivery of biotin to mitochondria” (priority 2020, dated 2023):
Square brackets hold non-standard residues; d marks the D form. Peptide text beside a SMILES is read from it. * marks the point of attachment. Biotin = O=C1N[C@H]2[C@H](CS[C@H]2CCCCC(=O)*)N1; Dmt = Cc1cc(O)cc(C)c1C[C@H](N)C(=O)O

Experiments:
[1] = tested on: ARPE-19 human retinal pigment epithelial cells; test: Mitochondrial localization: co-localization with cytochrome c oxidase subunit 4 (COX4); assay type: cell-based; settings: ARPE-19 cells, 1 uM, 2 hours, serum-free DMEM/F12
Protocol: Cells were fixed with 4% PFA at RT for 10 min and then permeabilized with 0.1% Triton X-100 at RT for 10 min. Cells were blocked with 2% BSA (bovine serum albumin) at RT for 30 min, and then incubated with primary antibody for cytochrome c oxidase subunit 4 (COX4), a major protein complex expressed on the inner mitochondrial membrane. The rabbit polyclonal COX4 antibody (Invitrogen PAS-29992, Waltham, MA) was used at 1:500 dilution in 2% BSA at 4° C. overnight.

[2] = tested on: ARPE-19 human retinal pigment epithelial cell monolayers; test: Cell proliferation at scratch edge (PCNA staining); assay type: cell-based; settings: ARPE-19 cells, 10 nM, serum-free, 24 hours after scratch
Excerpt: (§1) Re-epithelialization of a wound area require proliferation of cells at the wound edge, which can be impaired in most wounds due to lack of blood flow to deliver nutrients and/or growth factor(s) that can be necessary for cell proliferation. Cell proliferation in the wound edge can be monitored by proliferating cell nuclear antigen (PCNA) staining. To mimic the microenvironment of wounds in vitro, serum-free medium was used for the scratch assay in cell cultures.
(§2) Proliferating cells were identified by immunostaining with antibody to proliferating cell nuclear antigen (PCNA) according to standard procedures as presented in IHC World. PCNA staining was performed using the same plate of cells after determination of scratch area. […] All cell nuclei stain blue with Hoechst, but nuclei of proliferating cells stain red. The number of proliferating cells per field was quantified by the intensity of red nuclear stain and normalized to intensity of blue nuclear stain (determined by Nikon NIS-Elements Imaging Software).

[3] = tested on: HK-2 human renal epithelial cell monolayers; test: Cell proliferation at scratch edge (PCNA staining); assay type: cell-based; settings: HK-2 cells, 10 nM, serum-free, 24 hours after scratch; for number of proliferating cells normalized to all nuclei, FIG. 21: compared to control or biotin
Excerpt: as §1, §2

HK-2 cells [4] = test: Cell viability (Alamar Blue) after 11 days of serum starvation; assay type: cell-based, human; settings: 10 nM, vs serum-free control
Protocol: In the first model, HK-2 cells were cultured in 96-well plates in serum-free DMEM alone or in serum-free DMEM containing 10 nM of SPN11 or SPN12 for 11 days. Culture medium was replaced every 3 days.
(§3) Cell viability was measured using the Alamar Blue Cell Proliferation Assay (Bio-Rad), according to manufacturer's protocol. Alamar Blue uses resazurin to measure reducing power of living cells. The weakly fluorescent resazurin is reduced to the highly fluorescent resorufin when reduced by cellular metabolism. Briefly, alamar blue reagent (10 ul) was added to the culture medium and incubated for 1 h at 37° C. Fluorescence from resorufin (Ex/Em 530/590 nm) was detected using a microplate reader (SpectraMax iD3, Molecular Devices).

HK-2 cells [5] = test: In vitro scratch assay (scratch area); assay type: cell-based, human; settings: 10 nM; for scratch area after 24 hours, microscopic images FIG. 15: serum-free DMEM, 24 hours after mechanical scratch; for closure of the scratch area compared to control, FIG. 16 and FIG. 17 / effectiveness in reducing scratch area compared to free biotin, FIG. 16 and FIG. 17: serum-free, 24 hours
Protocol: (§4) Certain exemplary peptide-conjugated biotin molecules can accelerate wound healing in cell cultures. The in vitro scratch assay is an easy and well-developed method to measure cell proliferation and migration over a “wound area” in vitro. This assay involves creating a “scratch” in a cell monolayer with a pipette tip and then examining the rate at which cells proliferate and migrate to close the scratch.
3×10^5 cells were plated per well in 6-well plates in DMEM at 37° C. in a humidified incubator with 5% CO2 for one day prior to the experiment. To mimic the microenvironment of wounds in vitro, serum-free medium was used in the scratch assay. On the day of the scratch assay, the medium was replaced with serum-free DMEM, and a line scraped across the cell monolayer using a p1000 pipette tip. Cells were washed to remove cell debris and replaced with DMEM alone (control), or DMEM containing 10 nM biotin or peptide-conjugated biotin molecules.
(§5) The scratch area was examined immediately (day 0) using a Nikon Eclipse Ti2 fluorescence microscope. Six different field were captured for each sample using 4×objective. The scratch area (cell-free zone) was calculated using ImageJ software, an open-source Java image processing program inspired by NIH Image (National Institute of Health). The scratch area was re-examined after 24 hours (day 1), and the area was normalized to the area determined on day 0 for the same sample. All results were calculated as change from no-treatment control and averaged for the six fields.

HK-2 cells [6] = test: Cellular ATP in extreme starvation model (serum-free 5% DMEM in PBS, 3 days); assay type: cell-based, human; settings: 10 nM
Protocol: ATP was measured using the ApoSENSOR ATP Bioluminescence Assay Kit (BioVision) according to manufacturer's protocol. This kit utilizes luciferase to catalyze the formation of light from ATP and luciferin. Briefly, cells were treated with 100 ul of Nuclear Releasing Buffer for 5 min at RT with gentle shaking. 10 ul of ATP Monitoring Enzyme was added to cell lysate, and luminescence was measured using a microplate reader (SpectraMax iD3, Molecular Device). ATP levels were normalized to the serum-free DMEM control group (arbitrarily set to 1.0).
The second model uses an extreme starvation model whereby HK-2 cells were cultured in 96-well plates in serum-free 5% DMEM in PBS (phosphate-buffered saline) for 3 days. Cells were treated with 10 nM free biotin or peptide-conjugated biotin molecules. All treatments were carried out with N=6 in each experiment.

HK-2 cells [7] = test: Mitochondrial potential (TMRM) of cells at the scratch edge; assay type: cell-based, human; settings: 10 nM, serum-free, 24 hours after scratch; for mitochondrial potential (red fluorescence) normalized to nuclear number, FIG. 25: compared to control
Excerpt: Rapidly dividing cells can need ATP to support the synthesis of important building blocks. Tissue injury can cause rapid mitochondrial depolarization that compromises ATP production and/or results in cell death. The loss of ATP can further impair cell proliferation and/or tissue repair. Mitochondrial potential can be monitored in the cells at the edge of the scratch area using the cell-permeable potential-dependent dye TMRM (tetramethylrhodamine methyl ester). TMRM can accumulate in negatively charged polarized mitochondria and can be detected as red fluorescence. To mimic the microenvironment of wounds in vitro, serum-free medium was used in the scratch assay. […] HK-2 cells were then incubated with 5 nM TMRM in DMEM without phenol red and incubated for 30 min. Cells were then covered with live cell image buffer and imaged using Nikon Eclipse Ti2 fluorescent microscope (20× objective).

ARPE-19 cells [8] = test: Cell number and viability after 30 days of serum deprivation; assay type: cell-based, human; settings: 10 nM
Protocol: as §3
In the second model, ARPE-19 cells were grown in serum-free DMEM in the absence or presence of peptide-conjugated biotin molecules for 30 days. Serum-free media was supplemented with 10 nM of SPN12, SPN15 or SPN16 compounds (all at 10 nM) was replaced every 3 days. Culture medium was replaced every 3 days.

[9] = tested on: ARPE-19 human retinal pigment epithelial cells; test: Biotin uptake by streptavidin-Alexa Fluor 594 fluorescence in ARPE-19 cells; settings: 1 uM, 1-hour incubation, serum-free
Protocol: Cellular uptake and localization of peptide-conjugated biotin molecules were determined in HK-2 human renal epithelial cells and ARPE-19 human retinal pigment epithelial cells (ATCC, Manassas, VA). HK-2 cells were cultured in Dulbecco's Modified Eagle's Medium (DMEM) containing 1 g/L glucose and 10% fetal bovine serum (FBS), 100 units/ml penicillin and 100 ug/ml streptomycin. ARPE-19 cells were cultured in DMEM/F12 medium containing 1 g/L glucose and 10% fetal bovine serum (FBS), 100 units/ml penicillin and 100 ug/ml streptomycin. Cells were incubated in humidified incubator with 5% CO2 at 37° C. HK-2 cells and ARPE-19 cells were seeded in 35 mm dish at an initial density of 5×10^4 cells. FBS was removed from the culture medium for 3 days to deplete endogenous biotin in the cells. […]
Biotin uptake was determined using Streptavidin binding. […] By using Alexa Fluor 594-conjugated streptavidin, it is possible to visualize biotin uptake using fluorescence microscopy. […] Live cell image buffer was added and Alexa-594 fluorescence (Ex/Em=591/614 nm) and Hoechst fluorescence ([…]) was observed using the Nikon Eclipse Ti2 fluorescence microscope (100×oil objective). Ten random fields from each sample were quantified by NIS-Elements Imaging Software (Nikon) for streptavidin fluorescence and normalized to Hoechst fluorescence to account for number of cells per field.

ARPE-19 cells [10] = test: In vitro scratch assay (scratch area); assay type: cell-based, human
Excerpt: as §4, §5

| SMILES | number of proliferating (PCNA-positive) cells at the edge of the scratch, images FIG. 22 [2] | number of proliferating cells normalized to all nuclei, FIG. 21 [3] | scratch area after 24 hours, microscopic images FIG. 15 (HK-2 cells [5]) | closure of the scratch area compared to control, FIG. 16 and FIG. 17 (HK-2 cells [5]) | effectiveness in reducing scratch area compared to free biotin, FIG. 16 and FIG. 17 (HK-2 cells [5]) | number of cells with good mitochondrial potential (TMRM) at scratch edge, images FIG. 24 (HK-2 cells [7]) | mitochondrial potential (red fluorescence) normalized to nuclear number, FIG. 25 (HK-2 cells [7]) | also measured |
| --- | --- | --- | --- | --- | --- | --- | --- | --- |
| Cc1cc(O)cc(C)c1C[C@H](NC(=O)[C@@H](CCCNC(=N)N)NC(=O)CCCC[C@@H]1SC[C@@H]2NC(=O)N[C@@H]21)C(=O)N[C@@H](CCCCN)C(=O)N[C@@H](Cc1ccccc1)C(N)=O [SPN05, D-Biotin-D-Arg-L-(2′6′-dimethylTyr)-L-Lys-L-Phe-NH2] (Biotin-[dR][Dmt]KF-NH2) |  |  |  |  |  |  |  | co-localization of biotin staining with COX4 staining (inner mitochondrial membrane), FIG. 6 [1]: co-localization |
| N=C(N)NCCC[C@@H](NC(=O)[C@@H](Cc1c[nH]c2ccccc12)NC(=O)CCCC[C@@H]1SC[C@@H]2NC(=O)N[C@@H]21)C(=O)N[C@H](Cc1c[nH]c2ccccc12)C(=O)N[C@H](CCCCN)C(=O)O [SPN08, D-Biotin-D-Trp-D-Arg-D-Trp-D-Lys-OH] (Biotin-[dW][dR][dW][dK]-OH) | increased the number of proliferating cells |  |  |  |  |  |  |  |
| N=C(N)NCCC[C@@H](NC(=O)[C@H](N)Cc1c[nH]c2ccccc12)C(=O)N[C@H](Cc1c[nH]c2ccccc12)C(=O)N[C@H](CCCCNC(=O)CCCC[C@@H]1SC[C@@H]2NC(=O)N[C@@H]21)C(=O)O [SPN09, D-Trp-D-Arg-D-Trp-D-Lys(biotinyl)-OH] (H-[dW][dR][dW][dK](Biotin)-OH; N-terminus assumed) | increased the number of proliferating cells |  |  |  |  |  |  |  |
| N=C(N)NCCC[C@H](NC(=O)[C@@H](N)Cc1c[nH]c2ccccc12)C(=O)N[C@@H](Cc1c[nH]c2ccccc12)C(=O)N[C@@H](CCCCNC(=O)CCCC[C@@H]1SC[C@@H]2NC(=O)N[C@@H]21)C(N)=O [SPN11, L-Trp-L-Arg-L-Trp-L-Lys(biotinyl)-NH2] (H-WRWK(Biotin)-NH2; N-terminus assumed) | increased the number of proliferating cells | doubled | almost completely closed | significantly accelerated the closure of the scratch area | twice as effective | increased the number of cells with good mitochondrial potential | significantly increased mitochondrial potential | number of proliferating (PCNA-positive) cells at the edge of the scratch, images FIG. 20 ([3]; compared to free biotin): increased the number of proliferating cells; improvement of cell viability in the absence of serum, FIG. 7 (HK-2 cells [4]): 35%; ATP content compared to free biotin under extreme starvation, FIG. 12 (HK-2 cells [6]): doubling |
| N=C(N)NCCC[C@@H](NC(=O)CCCC[C@@H]1SC[C@@H]2NC(=O)N[C@@H]21)C(=O)N[C@@H](Cc1ccc(O)cc1)C(=O)N[C@H](CCCNC(=N)N)C(=O)N[C@@H](Cc1ccccc1)C(=O)N[C@@H](CCCCNC(=O)CCCC[C@@H]1SC[C@@H]2NC(=O)N[C@@H]21)C(N)=O [SPN16, D-Biotin-D-Arg-L-Tyr-D-Arg-L-Phe-L-Lys(biotinyl)-NH2] (Biotin-[dR]Y[dR]FK(Biotin)-NH2) |  |  |  | significantly accelerated the closure of the scratch area | three times more effective |  |  | cell viability after serum deprivation compared to control, FIG. 9 (ARPE-19 cells [8]; 30 days of serum deprivation): doubled; cell number after prolonged serum deprivation, microscopic images FIG. 8 (ARPE-19 cells [8]; 30 days serum-free): increased cell number; intracellular streptavidin staining (cellular uptake of biotin), microscopic images FIG. 4 [9]: intense red staining with a perinuclear distribution; wound healing (scratch closure), FIG. 18 (ARPE-19 cells [10]): accelerated wound healing |
| O=C(O)CCCC[C@@H]1SC[C@@H]2NC(=O)N[C@@H]21 [biotin] | no effect | small and did not reach statistical significance | small effect on reducing scratch area | significantly accelerated the closure of the scratch area |  | no effect | did not reach statistical significance | increase of the percent of proliferating cells at the edge of the scratch, FIG. 23 ([2]; compared to control): without effect |
